Test results reported in paper PMC10761680 (Scientific Reports, 2024).
Where two headings read alike, the source gives them in different places. Values belong to the compound of their own block, whether it stands above or below them.

What was measured:
[1] = target: human soluble ENPP1; details: substrate p-Nph-5′-TMP, Colorimetry (p-nitrophenol), cited from earlier work; for Ki: pH 9.0; for IC50: read-out: IC50 (shown in the Ki column)
[2] = target: human soluble ENPP1; set-up: method as in earlier work; details: substrate ATP, Colorimetry (Molybdenum-phosphate complex), pH 9.0; cited from earlier work
[3] = target: human soluble ENPP1; details: substrate ATP, Capillary Electrophoresis, pH 9.0; cited from earlier work
[4] = target: human soluble ENPP1; details: substrate cGAMP, Bioluminescence (Enzyme-coupling), cited from earlier work
[5] = target: T1, human ENPP1 (Homo sapiens, UniProt P22413); test: Fluorescent screening of ENPP1 inhibitors using ATP as substrate and Kyoto Green as reporter; assay type: biochemical; set-up: purchased R&D systems (Minneapolis, USA); details: 2 μM ATP, 11.5 nM ENPP1, 20 min, pH 7.4; for ENPP1 inhibition in Kyoto Green screening (in words): 10 μM or maximum soluble concentration
T1 sequence (P22413 98-925 limits assumed): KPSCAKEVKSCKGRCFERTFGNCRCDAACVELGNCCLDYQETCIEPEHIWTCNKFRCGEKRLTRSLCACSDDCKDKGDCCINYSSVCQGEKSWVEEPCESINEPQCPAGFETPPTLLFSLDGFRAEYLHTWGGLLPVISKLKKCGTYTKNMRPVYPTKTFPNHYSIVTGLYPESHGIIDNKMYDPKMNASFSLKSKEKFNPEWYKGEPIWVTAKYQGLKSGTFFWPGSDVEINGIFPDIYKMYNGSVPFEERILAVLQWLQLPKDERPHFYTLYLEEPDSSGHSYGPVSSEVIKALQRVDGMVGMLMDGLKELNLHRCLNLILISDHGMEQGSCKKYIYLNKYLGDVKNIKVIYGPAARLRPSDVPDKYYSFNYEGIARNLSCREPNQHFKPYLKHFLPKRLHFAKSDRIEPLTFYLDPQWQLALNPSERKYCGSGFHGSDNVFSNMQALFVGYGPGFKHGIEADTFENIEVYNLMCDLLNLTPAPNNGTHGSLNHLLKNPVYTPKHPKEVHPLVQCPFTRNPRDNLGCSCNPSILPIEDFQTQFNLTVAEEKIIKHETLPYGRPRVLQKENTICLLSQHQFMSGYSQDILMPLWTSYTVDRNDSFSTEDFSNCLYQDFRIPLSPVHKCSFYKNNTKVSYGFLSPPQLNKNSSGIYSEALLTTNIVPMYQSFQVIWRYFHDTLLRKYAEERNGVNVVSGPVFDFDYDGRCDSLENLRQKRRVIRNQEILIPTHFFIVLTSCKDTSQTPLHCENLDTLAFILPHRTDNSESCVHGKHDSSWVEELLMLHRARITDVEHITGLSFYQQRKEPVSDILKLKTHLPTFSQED

[6] = pH-dependent stability of quercetin in aqueous solution (UV-visible spectrum); assay type: physicochemical; details: 50 mM HEPES buffer (pH 7.4), 60 min, 7 µM
Protocol: page 8: 0 → 60 min 0 → 60 min Figure S7.pH -dependent stability of quercetin in aqueous solution. Time course of UV- visible spectrum (JASCO […], Japan) of quercetin ( 7 μ M) in50 m M HEPES buffer (pH 7.4) (above) or 50 mM borate buffer (pH 9.0) (below) . Inset: Absorbance at λ ma x ( 403 nm). Ratio of ethanol : buffer = 1 : 10 v/v. The buffer contain ed 10 mM NaCl, 1 mM MgCl 2, and 0.02 mM Zn(NO3)2. Measurements were performed at 25± 2 °C. S8 […]

[7] = Solubility in water (solution preparation); assay type: physicochemical
[8] = target: T1, human ENPP1; test: biochemical
[9] = target: T1, human ENPP1; test: Colorimetric UV-visible assay of ENPP1 using p-Nph-5′-TMP as chromogenic substrate; assay type: biochemical; set-up: purchased R&D systems (Minneapolis, USA)
[10] = target: T1, human ENPP1; test: Bioluminescent assay of ENPP1 using luciferin/luciferase ATP assay kit
[11] = target: T1, human ENPP1; test: Fluorescent determination of IC50/Ki using Kyoto Green (ATP hydrolysis)
[12] = target: T1, human ENPP1; set-up: purchased R&D systems (Minneapolis, USA); method as in PMID 28011303; details: substrate of human ENPP1, pH 9.0; cited from earlier work
[13] = Kyoto Green fluorescence method, ATP, pH 7.4

SMILES: Cc1nc2ncnn2c(N(C)C)c1Cc1cccc(N)c1 [Compound 1]
- Ki [1]: 480 nM
- Ki [2]: 2000 nM

SMILES: COc1ccc(NC(=O)CSc2nc3c(N)ncnc3[nH]2)cc1OC [Compound 3]
- Ki [1]: 5 nM
- Ki [3]: 18000 nM

SMILES: COc1cccc2c(NCc3ccc(P(=O)(O)O)cc3)c(C#N)cnc12 [Compound 5]
- Ki ([4]; pH 7.4): < 2 nM

SMILES: CN1Cc2c(ncnc2N2CCC(C)(CNS(N)(=O)=O)CC2)NC1=O [Compound 6]
- IC50 ([4]; pH 8.5, read-out: IC50 (shown in the Ki column)): 3.7 nM

- ENPP1 inhibition in Kyoto Green screening (in words) [5]: ineffective as inhibitors
SMILES: O=c1c(O)c(-c2ccc(O)cc2)oc2cc(O)cc(O)c12 [Kaempferol, 3, 4′,5,7 -tetrahydroxyflavone]

- ENPP1 inhibition in Kyoto Green screening (in words) [5]: ineffective as inhibitors
SMILES: O=c1c(O)c(-c2ccc(O)cc2O)oc2cc(O)cc(O)c12 [Morin, 3,5,7,2′,4′-pentahydroxyflavone]

SMILES: O=c1c(O)c(-c2cc(O)c(O)c(O)c2)oc2cc(O)cc(O)c12 [Myricetin, 3,5,7,3′,4′,5′-hexahydroxyflavone]
- IC50 ([1]; pH 7.4): 432 nM
- IC50 ([1]; pH 9.5): 414 nM

- stability in buffer [6]: highly stable
- solubility in water [7]: poor solubility in water
- Ki [8]: ~4 nM
- reduction of Kyoto Green fluorescence change (F/F0-1) compared to the control group without an inhibitor ([5]; 10 μM compound): over 90%
- Ki by colorimetric method relative to Ki by Kyoto Green and commercial ATP assays ([9]; p-Nph-5′-TMP versus ATP as substrate): approximately 40 fold
- Ki ([9]; substrate p-Nph-5′-TMP, Colorimetry (p-nitrophenol), pH 7.4, Cheng-Prusoff, KM 222 µM): 159 ± 73 nM
- IC50 [10]: 5.5 ± 0.6 nM
- IC50 [11]: 4.5 ± 0.9 nM
- inhibitory efficiency of quercetin relative to myricetin [11, 13]: ~ 8 folds
- inhibitory efficiency of quercetin relative to suramin [11, 13]: ~ 188 folds
SMILES: O=c1c(O)c(-c2ccc(O)c(O)c2)oc2cc(O)cc(O)c12 [Quercetin, 3,5,7,3′,4′-pentahydroxyflavone]
- ENPP1 inhibition at pH 9.0 (in words) ([9]; 700 nM quercetin, 0.1 mM p-Nph-5′-TMP, 50 mM borate buffer pH 9.0, 6.5 nM ENPP1, time course 60 min): capable of inhibiting ENPP1 at pH 9.0, but this effect was observed only for the first 10 min

- ENPP1 inhibition in Kyoto Green screening (in words) [5]: did not inhibit ENPP1
- ENPP1 inhibition in Kyoto Green screening (in words) ([5]; listed as quercetin glucoside): ineffective as inhibitors
SMILES: O=c1c(O[C@@H]2O[C@H](CO)[C@@H](O)[C@H](O)[C@H]2O)c(-c2ccc(O)c(O)c2)oc2cc(O)cc(O)c12 [Quercetin-3-glucoside, quercetin-3-glucoside]

SMILES: Cc1cn([C@H]2C[C@H](O)[C@@H](COP(=O)(O)Oc3ccc([N+](=O)[O-])cc3)O2)c(=O)[nH]c1=O [p-Nph-5′-TMP, p-nitrophenyl 5′-thymidine monophosphate]
- Km [12]: 222 µM
